Test results: patent US12195476B2, “Synthesis method of furoimidazopyridine compound, crystal form of furoimidazopyridine compound, and crystal form of salt thereof” (HANGZHOU HIGHLIGHTLL PHARMACEUTICAL CO., LTD, priority 2019, dated 2025)
pIC50: −log10 of the molar value.

Columns and labels:
TYK2 = biological target: T1, TYK2 (Homo sapiens, UniProt P29597); experiment: TYK2 biochemical test (33P-ATP filter binding kinase assay, Reaction Biology Corp); details: 2 hours at room temperature
T1 construct: purchased Reaction Biology Corp, Malvern, PA (contract test)
Procedure: An appropriate amount of a compound of formula I was weighed for TYK2 biochemical test.
The test was conducted by Reaction Biology Corp, Malvern, PA (Anastassiadis et al. Nat Biotechnol. 2011; 29(11):1039-45). The step is briefly described as follows.
Basic reaction buffer: 20 mM Hepes (pH 7.5), 10 mM MgCl2, 1 mM EGTA, 0.02% Brij35, 0.02 mg/ml BSA, 0.1 mM Na3VO4, 2 mM DTT and 1% DMSO. The required cofactor was added to each kinase reaction respectively.
• 1. Preparing the designated substrate in the newly prepared basic reaction buffer; • 2. Transferring the required cofactor to the above matrix solution; • 3. Transferring the designated kinase to the substrate solution and mixing well slightly; • 4. Transferring a compound of formula I in DMSO to the kinase reaction mixture with Acoustic technique (Echo550; nanoliter range), culturing for 20 minutes at room temperature; • 5. Introducing ^33P-ATP (specific activity: 10 μCi/μl) to the reaction mixture to trigger a reaction; • 6. Culturing at room temperature and conducting a kinase reaction for 2 hours; • 7. Plotting the reaction on P81 ion exchange paper; • 8. Testing the kinase activity with a filter binding assay.

[1] = system: thrombopoietin-induced STAT3 phosphorylation; details: result in words; cited from earlier work
JAK1 = JAK1 (Homo sapiens, UniProt P23458); details: result in words; cited from earlier work
[2] = system: IL-6-induced STAT3 phosphorylation; details: result in words; cited from earlier work

Chain of JAK1 (P23458 whole entry): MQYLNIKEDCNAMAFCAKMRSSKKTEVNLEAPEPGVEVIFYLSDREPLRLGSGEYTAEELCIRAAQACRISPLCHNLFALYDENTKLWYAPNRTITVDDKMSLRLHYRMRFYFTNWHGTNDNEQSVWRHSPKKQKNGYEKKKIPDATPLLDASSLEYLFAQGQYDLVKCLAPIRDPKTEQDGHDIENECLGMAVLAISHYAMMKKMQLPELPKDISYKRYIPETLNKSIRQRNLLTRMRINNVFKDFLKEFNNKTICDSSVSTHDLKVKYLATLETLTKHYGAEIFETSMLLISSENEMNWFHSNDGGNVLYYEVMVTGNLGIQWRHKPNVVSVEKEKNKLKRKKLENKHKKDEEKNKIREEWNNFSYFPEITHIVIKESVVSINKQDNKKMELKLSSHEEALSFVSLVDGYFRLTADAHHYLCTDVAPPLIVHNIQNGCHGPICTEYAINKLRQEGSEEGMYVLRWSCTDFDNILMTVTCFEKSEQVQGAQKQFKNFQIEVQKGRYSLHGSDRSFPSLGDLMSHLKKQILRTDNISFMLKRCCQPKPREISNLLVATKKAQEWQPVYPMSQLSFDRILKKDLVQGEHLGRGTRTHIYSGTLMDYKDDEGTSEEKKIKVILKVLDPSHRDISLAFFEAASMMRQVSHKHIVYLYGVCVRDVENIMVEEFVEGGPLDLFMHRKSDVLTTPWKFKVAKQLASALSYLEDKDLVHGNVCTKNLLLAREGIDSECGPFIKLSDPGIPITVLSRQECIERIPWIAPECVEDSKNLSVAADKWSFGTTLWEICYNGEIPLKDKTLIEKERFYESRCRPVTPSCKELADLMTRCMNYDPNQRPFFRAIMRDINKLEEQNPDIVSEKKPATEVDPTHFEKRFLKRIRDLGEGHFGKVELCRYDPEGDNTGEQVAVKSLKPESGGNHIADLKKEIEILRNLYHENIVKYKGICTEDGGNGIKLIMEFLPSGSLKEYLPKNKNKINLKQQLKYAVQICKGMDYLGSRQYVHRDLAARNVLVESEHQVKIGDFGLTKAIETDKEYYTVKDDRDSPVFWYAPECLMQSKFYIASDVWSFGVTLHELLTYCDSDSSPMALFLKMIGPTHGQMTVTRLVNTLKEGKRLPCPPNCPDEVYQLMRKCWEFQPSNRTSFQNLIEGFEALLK
T1 sequence (P29597 whole entry): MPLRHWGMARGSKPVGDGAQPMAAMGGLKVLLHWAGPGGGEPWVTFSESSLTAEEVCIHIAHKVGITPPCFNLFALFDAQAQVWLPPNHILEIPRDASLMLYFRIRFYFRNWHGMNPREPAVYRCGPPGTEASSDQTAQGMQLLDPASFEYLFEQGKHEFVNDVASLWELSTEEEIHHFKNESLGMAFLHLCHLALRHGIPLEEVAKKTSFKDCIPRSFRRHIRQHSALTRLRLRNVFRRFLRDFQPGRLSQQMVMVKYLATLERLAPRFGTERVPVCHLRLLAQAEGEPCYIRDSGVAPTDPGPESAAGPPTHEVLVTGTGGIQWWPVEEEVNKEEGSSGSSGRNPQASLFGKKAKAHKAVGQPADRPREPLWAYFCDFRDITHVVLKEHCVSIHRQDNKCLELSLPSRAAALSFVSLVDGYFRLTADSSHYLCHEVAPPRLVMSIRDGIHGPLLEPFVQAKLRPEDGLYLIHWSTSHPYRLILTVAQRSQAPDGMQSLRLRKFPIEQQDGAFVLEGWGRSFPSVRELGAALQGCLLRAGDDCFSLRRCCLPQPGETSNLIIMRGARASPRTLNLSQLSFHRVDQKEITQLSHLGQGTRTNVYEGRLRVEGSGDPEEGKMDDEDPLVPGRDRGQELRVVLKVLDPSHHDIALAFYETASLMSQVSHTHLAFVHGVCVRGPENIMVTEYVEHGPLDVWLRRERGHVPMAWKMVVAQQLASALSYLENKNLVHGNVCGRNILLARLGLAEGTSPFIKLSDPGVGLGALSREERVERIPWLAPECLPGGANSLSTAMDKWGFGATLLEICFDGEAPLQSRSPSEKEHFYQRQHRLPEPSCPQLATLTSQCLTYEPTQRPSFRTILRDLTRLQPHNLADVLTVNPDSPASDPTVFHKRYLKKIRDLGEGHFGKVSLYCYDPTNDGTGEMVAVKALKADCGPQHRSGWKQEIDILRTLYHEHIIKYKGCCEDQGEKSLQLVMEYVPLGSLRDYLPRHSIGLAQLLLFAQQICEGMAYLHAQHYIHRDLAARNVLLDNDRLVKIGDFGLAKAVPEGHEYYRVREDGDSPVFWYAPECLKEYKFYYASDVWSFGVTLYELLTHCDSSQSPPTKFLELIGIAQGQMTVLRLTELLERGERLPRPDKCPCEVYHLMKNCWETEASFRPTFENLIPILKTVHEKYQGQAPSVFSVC

pIC50 (TYK2): > 8.00
Compound: C[C@@H](O)c1nc2cnc3ccoc3c2n1[C@H]1CC[C@H](CC#N)OC1 [compound I, 2-[(2R,5S)-5-[2-[(R)-1-hydroxyethyl]furo[3,2-b]imidazo[4,5-d]pyridin-1-yl]tetrahydropyran-2-yl]acetonitrile]
inhibition of thrombopoietin-induced STAT3 phosphorylation [1]: did not show selective inhibition | JAK1 inhibition (JAK1): potent and selective JAK1 inhibitor | inhibition of IL-6-induced STAT3 phosphorylation [2]: demonstrated selective inhibition
